Results reported in patent US7605135B2 (priority 2003, dated 2009).
Where two headings read alike, the source gives them in different places.

What was measured:
[1] = human, in vivo; cited from earlier work
[2] = tested on: HIV-1; details: cited from earlier work
[3] = tested on: SARS-CoV; details: fRhK4 cell line; for EC50 (μg/ml) at 48 hrs / EC50 (μg/ml) at 72 hrs: 10 strains of SARS-CoV, inhibition of cytopathic effect to 50% of control
[4] = tested on: fRhK4 cell line
[5] = in vivo, cited from earlier work

Substance: baicalin
- Serum level (after intravenous administration) Cmax [1]: 74
- Antiviral effect [2]: Inhibition of HIV-1 [Kitamura K et al., “Baicalin: an inhibitor of HIV-1
- EC50 (μg/ml) at 48 hrs [3]: 12.5 to 25 µg/mL
- EC50 (μg/ml) at 48 hrs ([3]; listed as baicalin): 12.5 to 25 µg/mL
- EC50 (μg/ml) at 72 hrs [3]: 25 to 50 µg/mL
- EC50 (μg/ml) at 72 hrs ([3]; listed as baicalin): 25 to 50 µg/mL
- SI = CC50/EC50 at 48 hrs ([3]; selectivity index): >8
- CC50 [4]: >100 µg/mL
- Serum level (after oral administration) Cmax ([5]; human, po): Cmax = 60 ng/mL (189.8 mg/person, in human). The amount (i.e., 189.8 mg/
- Half life (in humans) ([5]; human): ~3 hrs in humans Muto R et al., “The chemical structure of new substance
- Serum concentration after oral dose ([5]; po): 470 ng/mL
